In patent US6638928B1, “Treatment of irritable bowel syndrome and nonulcer dyspepsia with substituted 2,3-benzodiazepines” (Vela Pharmaceuticals, Inc., priority 2002, dated 2003):

Experiments:
[1] = tested on: colonic propulsive motility; experiment: Glass bead test of colonic propulsive motility in mice; type: in vivo, mouse; conditions: 32 mg/kg IP; for Expulsion Time Mean ± SEM: 3 mm glass bead inserted 30 minutes after dosing, cut-off time 30 minutes, 10 per group; for Expulsion Time Mean ± SEM / inhibition at 32 mg/kg: female Swiss Webster mice; for inhibition at 32 mg/kg: Mus musculus, inhibition of bead expulsion vs vehicle; for inhibition of colonic propulsion (in words): summary of Table 1 data, mice
Description: This model is predictive of agents that may be used to treat the alterations in propulsion of intestinal contents that occur in individuals diagnosed with IBS. The model is very sensitive to test compounds producing inhibitory effects on propulsive motor activity, but is not sensitive to test articles increasing colonic propulsive motility. The model provides a direct measure of colonic propulsion. Thus, a test compound that slows the rate at which a glass bead is expelled, is predicted to have utility in the treatment of IBS,
This test is also used to evaluate test articles with potential to produce constipation, antidiarrheal activity, or have selective visceral anti-nociceptive activity in addition to being used as an animal model for irritable bowel syndrome.
For the present example, seventy test animals (female, 6 week old Swiss Webster mice, 18-30 g) were divided into 7 groups of 10 animals each for administration of six test compounds and vehicle alone as a control.
Each animal was dosed (IP) with either a compound of formula I, one of two related 2,3-benzodiazepines or vehicle alone. Thirty minutes after dosing, a 3 mm glass bead was inserted through the anus to a depth of 2 cm into the distal colon using a glass rod. […] Any test animal that had not expelled the bead within a cut-off time of 30 minutes was sacrificed and the position of the bead in the lumen of the colon was verified.
Such observations included gross evaluation of skin and fur, eyes and mucous membranes, respiratory, circulatory, autonomic and central nervous system, somatomotor activity and behavioral patterns. Particular attention was directed to observation of tremors, convulsions, salivation, diarrhea, sleep and coma. No signs of gross toxicity were observed. Mean and standard error of the mean were calculated for the expulsion times for each group.

[2] = tested on: central BZ receptors; conditions: cited from earlier work
[3] = biological target: peripheral BZ receptors (Homo sapiens, UniProt P30536); conditions: cited from earlier work
Chain of peripheral BZ receptors (P30536 whole entry): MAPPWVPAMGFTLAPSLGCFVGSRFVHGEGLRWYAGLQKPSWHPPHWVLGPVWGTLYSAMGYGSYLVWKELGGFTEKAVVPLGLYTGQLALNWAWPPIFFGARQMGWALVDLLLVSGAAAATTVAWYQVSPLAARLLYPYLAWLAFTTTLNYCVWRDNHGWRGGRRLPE

[4] = tested on: aggression in mice; conditions: cited from earlier work
[5] = tested on: muricide in rats; conditions: cited from earlier work
[6] = tested on: anti-noradrenergic effects; conditions: cited from earlier work
[7] = tested on: narcosis in mice; conditions: cited from earlier work

| Structure (SMILES) | Expulsion Time Mean ± SEM [1] | inhibition at 32 mg/kg [1] [%] | inhibition of colonic propulsion (in words) [1] | interaction with central BZ receptors [2] | binding to peripheral BZ receptors [3] | inhibition of aggression [4] [%] | inhibition of muricide [5] [%] | anti-noradrenergic effects [6] | narcosis-potentiating activity [7] |
| --- | --- | --- | --- | --- | --- | --- | --- | --- | --- |
| CCC1C(C)=NN=C(c2ccc(OC)c(OC)c2)c2cc(O)c(OC)cc21 (racemic) [Compound 2, 1-(3,4-dimethoxyphenyl)-4-methyl-5-ethyl-7-methoxy-8-hydroxy-5H-2,3-benzodiazepine] | 17.2 ± 3.5 | 23 | – | – | – | – | – | – | – |
| CCC1C(C)=NN=C(c2ccc(OC)c(O)c2)c2cc(OC)c(OC)cc21 (racemic) [Compound 4, 1-(3-hydroxy-4-methoxyphenyl)-4-methyl-5-ethyl-7,8-dimethoxy-5H-2,3-benzodiazepine] | 20.3 ± 3.5 | 42 | substantial inhibition of colonic propulsion | – | – | – | – | – | – |
| CCC1C(C)=NN=C(c2ccc(OC)c(OC)c2)c2cc(OC)c(OC)cc21 (racemic) [tofisopam, 1-(3,4-dimethoxyphenyl)-4-methyl-5-ethyl-7,8-dimethoxy-5H-2,3-benzodiazepine] | – | – | – | does not interact | binds only weakly | – | – | – | – |
| CCC1C(C)=NN=C(c2ccc(OC)c(OC)c2)c2cc(OC)c(O)cc21 (centres unmarked) [Compound 1, 1-(3,4-dimethoxyphenyl)-4-methyl-5-ethyl-7-hydroxy-8-methoxy-5H-2,3-benzodiazepine] | 6.9 ± 3.7 | 22 | – | – | – | 0 | 20 | no effect | – |
| CCC1C(C)=NN=C(c2ccc(O)c(OC)c2)c2cc(OC)c(OC)cc21 (centres unmarked) [Compound 3, 1-(3-methoxy-4-hydroxyphenyl)-4-methyl-5-ethyl-7,8-dimethoxy-5H-2,3-benzodiazepine] | 20.0 ± 3.1 | 40 | substantial inhibition of colonic propulsion | – | – | 0 | 0 | measurable activity | narcosis-potentiating activity |
| CCC1C(C)=NN=C(c2ccc(O)c(OC)c2)c2cc(OC)c(O)cc21 (centres unmarked) [Compound 5, 1-(3-methoxy-4-hydroxyphenyl)-4-methyl-5-ethyl-7-hydroxy-8-methoxy-5H-2,3-benzodiazepine, reference compound] | 12.0 ± 3.2 | 0 | – | – | – | 28.6 | 20 | measurable activity | – |
| CCC1C(C)=NN=C(c2ccc(OC)c(O)c2)c2cc(OC)c(O)cc21 (centres unmarked) [Compound 6, 1-(3-hydroxy-4-methoxyphenyl)-4-methyl-5-ethyl-7-hydroxy-8-methoxy-5H-2,3-benzodiazepine, reference compound] | 10.7 ± 3.4 | 0 | – | – | – | – | – | – | – |
